Results as given in patent publication US20220380801A1, “TRIPARTITE SYSTEMS FOR PROTEIN DIMERIZATION AND METHODS OF USE” (priority 2019, published 2022).
Entries after “also recorded” stand apart in the source; their conditions may differ.

What was measured:
[1] = test system: Caspase 3 activity in kill switch-transduced HEK293 cells; experiment: Kill switch Caspase 3 functional assay; format: cell-based, human; settings: relative to non-transduced cells
Protocol: Lentiviral particles encoding the kill switch fusion protein (SEQ ID NO: 223) or kill switch S196A mutant fusion protein (SEQ ID NO: 230) were generated using pPACKH1 HIV lentiviral packaging kit (Systems Bioscience), according to manufacturer's instructions. HEK293 cells were transduced for 24 h in the presence of 8 μg/ml polybrene after which cells were changed into fresh growth medium (DMEM+10% foetal bovine serum+1% Non-essential amino acids). 24 h later transduced cells were selected by addition of 2 μg/ml puromycin for 5 days. Before functional testing, transduced cell pools were FACS sorted based on GFP fluorescence to isolate high expressing cell line pools and single cell clones.
Functional Caspase 9 activates Caspase 3, and this proteolytic activity can be determined using cleavage of non-fluorescent substrate DEVD-AMC into cleavage products DEVD and fluorescent AMC, such that AMC fluorescence signal at 430 nm is proportional to Caspase 3 activity. For the Caspase 3 assay, cells were plated in duplicate onto 6 well tissue-culture treated plates. […] Cells lysates were analysed in triplicate using a Caspase 3 assay from BD Biosciences according to manufacturer's instruction with the modification that total protein input was normalised to 50 μg by BCA assay (LifeTechnologies). Fluorescence was determined on an Envision plate reader (PerkinElmer), Ex: 380 nm, Em: 430 nm. […]

[2] = biological target: HCV NS3/4A PR D168E/PRSIM_23 (Hepatitis C virus subtype 1a, UniProt A8DG50, D1194E/S1165A, form not given); experiment: Biacore 8K simeprevir titration of heterodimerisation; format: binding; settings: read-out: EC50 of simeprevir for induction of heterodimerisation; D168E protease, immobilised PRSIM_23
Protocol: (§1) The effect of simeprevir concentration on the formation of the HCV NS3/4A PR (S139A)/PRSIM binding molecule complex was also measured using the Biacore 8K. PRSIM_57 and PRSIM_23 were covalently immobilised on a CM5 chip surface, as before. Simeprevir was diluted 1:2 (0.0152-300 nM) in 10 mM Hepes pH 7.4, 150 mM NaCl, 0.05% Surfactant P20, 0.3% DMSO at a constant 40 nM HCV NS3/4A PR (S139A) concentration. The samples were flowed over the chip at 50 μl/min using multi cycle kinetics, with 240 sec association and 600 sec dissociation. Regeneration conditions were as described above. Titration curves for the induction of HCV NS3/4A PR (S139A)/PRSIM dimerization by simeprevir were generated. The response for each simeprevir concentration at 225 sec (15 sec before the end of the association) was normalized as a percentage of the response for 300 nM Simeprevir at 225 sec and plotted against the Simeprevir concentration. Each data point represents the mean of 3 independent experiments±s.e.m. The EC50 reported was calculated using nonlinear regression curve fit. The same method was used for the mutant HCV NS3/4A proteases, except simeprevir was diluted 1:2 (0.0457-900 or 0.412-8,100 nM) in 10 mM Hepes pH 7.4, 150 mM NaCl, 0.05% Surfactant P20, 0.82% DMSO at a constant 40 nM HCV NS3/4A PR (S139A) concentration and the response for each simeprevir concentration was normalized against the highest simeprevir concentration.

[3] = biological target: HCV NS3/4A PR K136N/PRSIM_23 (Hepatitis C virus subtype 1a, UniProt A8DG50, A1066T/I1043Q/I1044E/K1162N/L1039E/L1040E/L1047Q/S1165A, form not given); experiment: as above; format: binding; settings: read-out: EC50 of simeprevir for induction of heterodimerisation; K136N protease, immobilised PRSIM_23
Protocol: as §1

[4] = biological target: HCV NS3/4A PR K136D/PRSIM_23 (Hepatitis C virus subtype 1a, UniProt A8DG50, K1162D/S1165A, form not given); experiment: as above; format: binding
Protocol: as §1

[5] = biological target: HCV NS3/4A PR (S139A)/PRSIM_57 (Hepatitis C virus subtype 1a, UniProt A8DG50, A1066T/I1043Q/I1044E/L1039E/L1040E/L1047Q/S1165A, form not given); experiment: as above; format: binding; settings: read-out: EC50 of simeprevir for induction of heterodimerisation; 40 nM HCV NS3/4A PR (S139A), immobilised PRSIM_57
Protocol: as §1

[6] = test system: Caspase 3 activity in kill switch-transduced HT29 cells; experiment: Kill switch Caspase 3 functional assay; format: cell-based, human; settings: 10 nM simeprevir, relative to non-transduced cells
Protocol: (§2) HCT116 and HT29 transduced cells were generated following the same protocol with exception of using McCoy's 5A medium+10% foetal bovine serum as growth medium, supplemented with 2 μg/ml puromycin for selection of transduced cells.
(§3) Functional Caspase 9 activates Caspase 3, and this proteolytic activity can be determined using cleavage of non-fluorescent substrate DEVD-AMC into cleavage products DEVD and fluorescent AMC, such that AMC fluorescence signal at 430 nm is proportional to Caspase 3 activity. For the Caspase 3 assay, cells were plated in duplicate onto 6 well tissue-culture treated plates. 24 h later, one of the duplicate wells was treated with 10 nM simeprevir for 3 h. Cells lysates were analysed in triplicate using a Caspase 3 assay from BD Biosciences according to manufacturer's instruction with the modification that total protein input was normalised to 50 μg by BCA assay (LifeTechnologies). Fluorescence was determined on an Envision plate reader (PerkinElmer), Ex: 380 nm, Em: 430 nm. For quantification, RFU (raw fluorescence value) for wells that contained only the assay substrate were subtracted from all RFU derived from assay samples. Results were normalised to non-transduced, simeprevir-treated cells. Analysis was performed in Prism (GraphPad) using a One-Way-Anova followed by multiple comparisons.

[7] = test system: Caspase 3 activity in kill switch-transduced HCT116 cells; experiment: Kill switch Caspase 3 functional assay; format: cell-based, human; settings: 10 nM simeprevir, relative to non-transduced cells
Protocol: as §2, §3

MED18852 expression = experiment: Transcriptional regulation assay, antibody (MED18852) expression; format: cell-based, human; settings: DBD-PRSIM_23 (three tandem copies); 48 hours after simeprevir
From the text: The DNA sequence encoding MED18852 (SEQ ID NO: 237 and SEQ ID NO: 238, separated by an internal ribosome entry site (IRES) sequence) was purchased as a as a DNA string from GeneArt and cloned into the pZFHD1-2 vector (Takara) downstream of the ZFHD1 inducible promoter using Gibson assembly cloning. The nucleotide sequence of the final construct was confirmed by sequencing.
For the quantification of antibody expression (MED18852) utilising the transcriptional regulation assay, the cells were co-transfected with a pHet-Act1-2 plasmid (containing the HCV NS3/4A PR (S139A):PRSIM_23) and a pZFHD1 plasmid (encoding MED18852); 24 hours later wells were treated with different concentrations of simeprevir. Antibody concentration was determined in the supernatants 48 hours post the addition of simeprevir using MSD kit (Singleplex Human/NHP IgG Isotyping Kit (Mesoscale).

COc1ccc2c(O[C@@H]3C[C@H]4C(=O)N[C@]5(C(=O)NS(=O)(=O)C6CC6)C[C@H]5/C=C\CCCCN(C)C(=O)[C@@H]4C3)cc(-c3nc(C(C)C)cs3)nc2c1C [simeprevir]
Caspase 3 activity ([1]; 10 nM simeprevir 3 h, wt kill switch): significantly (p<0.0001) up-regulated; also recorded: significantly (p<0.0005) upregulated
Caspase 3 activity ([1]; 10 nM simeprevir, S196A mutant kill switch): significantly (p<0.0005) upregulated
EC50 [2]: 3.69 nM
EC50 [3]: 8.06 nM
EC50 higher than for the wt complex ([4]; K136D versus wt complex): ~30 fold
EC50 ([4]; read-out: EC50 of simeprevir for induction of heterodimerisation, K136D protease, immobilised PRSIM_23): 132 nM
EC50 [5]: 4.57 nM
Caspase 3 activity [6]: significantly (p<0.0001) up-regulated
Caspase 3 activity [7]: significantly (p<0.0001) up-regulated
expression of MED18852 (MED18852 expression): dependent on the dose of simeprevir
